From publication PMC4113800 (Marine Drugs, 2014)

Assays:
P-gp = target: T1, P-gp (Homo sapiens, UniProt P08183); format: cell-based; conditions: compound or verapamil 20 μM vs PBS; calcein AM […]; SW620 Ad300; also: calcein AM 0.25 µM
T1 construct: The drug-resistant P-gp over-expressing daughter cell line SW620 Ad300 was established by stepwise selection; endogenous in cells; host or cells: SW620 Ad300 (human colon cancer, doxorubicin-selected)
Procedure: (§1) Flow cytometry based assays were used to measure the ability of natural or synthetic compounds to inhibit P-gp, BCRP or MRP1 mediated accumulation and/or efflux of fluorescent reagents. […] For the calcein AM accumulation assays, cells were directly analyzed by flow cytometry.
(§2) Intracellular fluorescence intensity was measured on a BD FACSCanto™ II flow cytometer (Becton Dickinson, San Jose, CA, USA) and data were analyzed through FlowJo (Tree Star, Inc., Ashland, OR, USA). […] Mitoxantrone fluorescence was detected with a 638 nm […] laser and a 660/20 nm band-pass filter. At least 10,000 events were collected for all of the flow cytometry experiment. By increasing threshold value on forward scatter versus side scatter, debris was eliminated. Dead cells were excluded based on propidium iodide staining. Data are means ± SEM of at least three independent experiments performed in duplicate.

BCRP [1] = target: T2, BCRP (Homo sapiens, UniProt Q9UNQ0); assay: cell-based; conditions: for FAR (fluorescence arbitrary ratio), mitoxantrone fluorescence / % FTC (inhibition of mitoxantrone efflux normalized to 10 μM FTC): NCI-H460/MX20
T2 sequence (Q9UNQ0 1-655): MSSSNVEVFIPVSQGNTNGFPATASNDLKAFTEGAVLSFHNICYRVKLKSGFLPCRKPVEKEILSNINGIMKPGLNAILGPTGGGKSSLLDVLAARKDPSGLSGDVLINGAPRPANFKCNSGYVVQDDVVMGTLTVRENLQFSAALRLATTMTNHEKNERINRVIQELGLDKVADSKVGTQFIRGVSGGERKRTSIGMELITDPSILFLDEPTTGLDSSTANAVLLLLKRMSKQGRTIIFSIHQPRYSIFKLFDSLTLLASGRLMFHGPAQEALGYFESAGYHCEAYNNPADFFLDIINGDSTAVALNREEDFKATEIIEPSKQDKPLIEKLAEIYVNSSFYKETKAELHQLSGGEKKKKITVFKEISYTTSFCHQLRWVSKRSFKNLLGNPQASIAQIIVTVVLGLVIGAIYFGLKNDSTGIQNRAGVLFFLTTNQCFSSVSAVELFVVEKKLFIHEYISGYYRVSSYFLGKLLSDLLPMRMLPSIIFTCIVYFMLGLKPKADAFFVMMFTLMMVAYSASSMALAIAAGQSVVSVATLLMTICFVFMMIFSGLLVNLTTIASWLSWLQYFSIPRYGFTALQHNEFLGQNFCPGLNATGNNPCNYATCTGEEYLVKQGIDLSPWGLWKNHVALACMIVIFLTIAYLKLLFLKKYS
Procedure: as §1, §2

[2] = MTT cytotoxicity assay, P-gp over-expressing SW620 Ad300 cells; format: cell-based; conditions: human
Procedure: (§3) The MTT assay was modified based on that previously described, using adherent cell lines SW620 and NCI-H460, and their P-gp over-expressing daughter cell line SW620 Ad300 and BCRP over-expressing daughter cell line NCI-H460/MX20, respectively. Briefly, cells were harvested with trypsin and added into 96-well microtitre assay plates at 2000 cells/well, followed by 18 h incubation at 37 °C with 5% CO2. […] Control wells were treated with 5% aqueous DMSO. […] 68 h later, 20 μL MTT (4 mg/mL in PBS) was dispensed into each well (final concentration 0.40 mg/mL), and plates were incubated for a further 4 h at 37 °C with 5% CO2. Finally medium was removed and precipitated formazan crystals were dissolved in 100% DMSO. The absorbance of each well was measured at 580 nm with a PowerWave XS Microplate Reader from Bio-Tek Instruments Inc. (Vinooski, VT, USA).
(§4) All experiments were performed in duplicate.

[3] = MTT cytotoxicity assay, parental SW620 cells; format: cell-based; conditions: human
Procedure: as §3, §4

SW620 Ad300 cells = assay: Reversal of P-gp mediated doxorubicin resistance (MTT assay); format: cell-based, human
Procedure: as §3, §4

NCI-H460 cells = assay: [3H]-mitoxantrone accumulation and efflux in parental NCI-H460 cells; format: cell-based, human; conditions: 11 at 10 or 30 μM, FTC 5.0 μM
Description: […]. […] […]

BCRP [4] = target: T2, BCRP; conditions: FTC 5.0 μM; [3H]-mitoxantrone 0.10 μM; NCI-H460/MX20
Procedure: In the efflux study cells were incubated with 0.1 μM [^3H]-mitoxantrone as the same in the accumulation study.

T1 sequence (P08183 whole entry): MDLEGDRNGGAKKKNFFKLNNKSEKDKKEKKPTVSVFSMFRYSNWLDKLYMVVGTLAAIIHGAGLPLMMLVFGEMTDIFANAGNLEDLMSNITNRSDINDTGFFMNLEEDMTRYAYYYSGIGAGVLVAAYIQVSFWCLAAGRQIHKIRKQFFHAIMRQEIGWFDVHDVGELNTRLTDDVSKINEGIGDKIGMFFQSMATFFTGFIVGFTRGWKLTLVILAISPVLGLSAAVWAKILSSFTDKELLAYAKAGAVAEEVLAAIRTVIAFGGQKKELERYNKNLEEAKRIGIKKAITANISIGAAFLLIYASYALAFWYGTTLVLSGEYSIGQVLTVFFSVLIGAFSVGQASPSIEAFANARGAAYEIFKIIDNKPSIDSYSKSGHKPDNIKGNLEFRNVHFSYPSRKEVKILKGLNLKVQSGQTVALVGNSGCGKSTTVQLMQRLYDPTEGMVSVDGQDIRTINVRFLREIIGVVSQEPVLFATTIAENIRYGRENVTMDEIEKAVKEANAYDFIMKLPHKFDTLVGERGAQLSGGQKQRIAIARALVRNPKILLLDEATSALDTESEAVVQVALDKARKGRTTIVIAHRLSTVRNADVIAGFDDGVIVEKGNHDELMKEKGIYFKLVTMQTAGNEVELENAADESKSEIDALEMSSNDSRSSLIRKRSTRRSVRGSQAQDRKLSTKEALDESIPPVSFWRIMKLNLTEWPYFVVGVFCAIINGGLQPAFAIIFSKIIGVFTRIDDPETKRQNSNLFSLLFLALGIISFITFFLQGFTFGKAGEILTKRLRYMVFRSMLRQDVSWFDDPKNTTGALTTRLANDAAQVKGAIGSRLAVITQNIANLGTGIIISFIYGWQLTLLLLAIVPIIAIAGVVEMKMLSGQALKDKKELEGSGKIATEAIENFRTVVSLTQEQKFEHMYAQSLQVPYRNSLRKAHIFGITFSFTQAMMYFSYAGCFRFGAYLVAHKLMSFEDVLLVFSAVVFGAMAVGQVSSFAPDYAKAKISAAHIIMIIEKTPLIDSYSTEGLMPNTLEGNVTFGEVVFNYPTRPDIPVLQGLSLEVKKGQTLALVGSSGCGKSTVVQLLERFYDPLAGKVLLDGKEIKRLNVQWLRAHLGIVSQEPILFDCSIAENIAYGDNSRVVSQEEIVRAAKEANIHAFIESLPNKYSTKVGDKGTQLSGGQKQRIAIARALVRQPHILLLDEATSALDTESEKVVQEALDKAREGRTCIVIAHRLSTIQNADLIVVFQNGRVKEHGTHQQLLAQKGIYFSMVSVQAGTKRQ

| FAR (fluorescence arbitrary ratio), intracellular calcein fluorescence (P-gp) [fold] | Structure (SMILES) | FAR (fluorescence arbitrary ratio), mitoxantrone fluorescence (BCRP [1]; compound 20 μM vs PBS) [fold] | % FTC (inhibition of mitoxantrone efflux normalized to 10 μM FTC) (BCRP [1]; compound 20 μM) [% FTC] | IC50 at 68 h [2] [µM] | IC50 at 68 h [3] [µM] | other results |
| --- | --- | --- | --- | --- | --- | --- |
| 0.63 | COC(=O)C1(O)NC(=O)C(c2ccc(O)cc2)=C1c1ccc(O)cc1 (stereo not drawn) [Compound 1, ianthellidone A] | 0.97 | <1.00 | > 30 | > 30 |  |
| 0.52 | CCOC1(C(=O)OC)NC(=O)C(c2ccc(O)cc2)=C1c1ccc(O)cc1 (stereo not drawn) [Compound 2, ianthellidone B] | 1.07 | 3.13 | > 30 | > 30 |  |
| 0.61 | COCN1C(=O)C(c2ccc(O)cc2)=C(c2ccc(O)cc2)C1(O)C(=O)OC (stereo not drawn) [Compound 3, ianthellidone C] | 1.12 | 5.60 | > 30 | > 30 |  |
| 0.60 | CCOCN1C(=O)C(c2ccc(O)cc2)=C(c2ccc(O)cc2)C1(O)C(=O)OC (stereo not drawn) [Compound 4, ianthellidone D] | 1.15 | 6.66 | > 30 | > 30 |  |
| 0.59 | CCOC(=O)CN1C(=O)C(c2ccc(O)cc2)=C(c2ccc(O)cc2)C1(O)C(=O)OC (stereo not drawn) [Compound 5, ianthellidone E] | 1.14 | 6.20 | > 30 | > 30 |  |
| 0.61 | COC(=O)C1(O)C(c2ccc(O)cc2)=C(c2ccc(O)cc2)C(=O)N1CC(=O)c1ccc(OC)cc1 (stereo not drawn) [Compound 6, ianthellidone F] | 1.21 | 9.79 | > 30 | > 30 |  |
| 0.67 | COC(=O)C1(O)OC(=O)C(c2ccc(O)cc2)=C1c1ccc(O)cc1 (stereo not drawn) [Compound 7, ianthellidone G] | 1.09 | 4.06 | > 30 | > 30 |  |
| 0.60 | COC(=O)C1(OC)OC(=O)C(c2ccc(O)cc2)=C1c1ccc(O)cc1 (stereo not drawn) [Compound 8, ianthellidone H] | 1.13 | 6.06 | > 30 | > 30 |  |
| 0.61 | COC(=O)c1c(-c2ccc(O)cc2)c(-c2ccc(O)cc2)cn1CC(=O)c1ccc(O)cc1 [Compound 9, lamellarin O1] | 1.23 | 10.6 | > 30 | > 30 |  |
| 0.60 | COC(=O)c1c(-c2ccc(O)cc2)c(-c2ccc(O)cc2)cn1CC(O)c1ccc(O)cc1 (stereo not drawn) [Compound 10, lamellarin O2] | 1.11 | 5.13 | > 30 | > 30 |  |
|  | COC(=O)c1c(-c2ccc(O)cc2)c(-c2ccc(O)cc2)cn1CC(=O)c1ccc(OC)cc1 [Compound 11, lamellarin O] |  |  | 22.3 | 22 | DMF (dose-modifying factor), increase in sensitivity towards doxorubicin (SW620 Ad300 cells; lamellarin O (11) 5.0 μM): 1.5 fold; DMF (dose-modifying factor), increase in sensitivity towards doxorubicin (SW620 Ad300 cells; lamellarin O (11) 10 μM): 3.1 fold; DMF (dose-modifying factor), increase in sensitivity towards doxorubicin (SW620 Ad300 cells; lamellarin O (11) […] μM): 4.8 fold; effect on intracellular [3H]-mitoxantrone levels, accumulation phase (NCI-H460 cells): neither 11 (10 or 30 μM) nor FTC (5.0 μM) significantly changed intracellular [^3H]-mitoxantrone levels; effect on intracellular [3H]-mitoxantrone levels, efflux phase (NCI-H460 cells): Neither 11 nor FTC had a significant effect |
| 0.54 | COC(=O)c1[nH]cc(-c2ccc(O)cc2)c1-c1ccc(O)cc1 [Compound 12, lamellarin Q] | 1.41 | 18.6 | > 30 | > 30 |  |
|  | COC(=O)c1cccn1CC(=O)c1ccc(OC)cc1 [Compound 13] | 1.00 | < 1.00 |  |  |  |
|  | COC(=O)c1cc(Br)cn1CC(=O)c1ccc(OC)cc1 [Compound 14] | 1.03 | < 1.00 |  |  |  |
|  | COC(=O)c1ccc(Br)n1CC(=O)c1ccc(OC)cc1 [Compound 15] | 0.97 | < 1.00 |  |  |  |
|  | COC(=O)c1c(Br)c(Br)c(Br)n1CC(=O)c1ccc(OC)cc1 [Compound 16] | 1.20 | 5.45 |  |  |  |
|  | COC(=O)c1c(-c2ccc(OC)cc2)c(-c2ccc(OC)cc2)cn1CC(=O)c1ccc(OC)cc1 [Compound 19, 4′,4″-dimethyl-lamellarin O] |  |  |  |  | IC50 (BCRP [1]): > 100 µM |
|  | COc1ccc2c3c([nH]c2c1)[C@H](C=C(C)C)N1C(=O)[C@@H]2CCCN2C(=O)[C@@H]1C3 [FTC, Fumitremorgin C, reference compound] |  |  |  |  | increase in [3H]-mitoxantrone accumulation (BCRP [4]): 2.2 fold; effect on intracellular [3H]-mitoxantrone levels, accumulation phase (NCI-H460 cells): neither 11 (10 or 30 μM) nor FTC (5.0 μM) significantly changed intracellular [^3H]-mitoxantrone levels; effect on intracellular [3H]-mitoxantrone levels, efflux phase (NCI-H460 cells): Neither 11 nor FTC had a significant effect; FAR (fluorescence arbitrary ratio), mitoxantrone fluorescence (BCRP [1]; FTC 10 μM (positive control) vs PBS): 3.17 fold; % FTC (inhibition of mitoxantrone efflux normalized to 10 μM FTC) (BCRP [1]; FTC 10 μM (positive control, set as 100%)): 100 % FTC |
|  | COc1cccc2c1C(=O)c1c(O)c3c(c(O)c1C2=O)C[C@@](O)(C(=O)CO)C[C@@H]3O[C@H]1C[C@H](N)[C@H](O)[C@H](C)O1 [doxorubicin, reference compound] |  |  |  |  | IC50 (SW620 Ad300 cells; Homo sapiens, doxorubicin alone): 4.44 ± 0.21 µM |
|  | COc1ccc(CCN(C)CCCC(C#N)(c2ccc(OC)c(OC)c2)C(C)C)cc1OC (stereo not drawn) [verapamil, reference compound] |  |  |  |  | DMF (dose-modifying factor), increase in sensitivity towards doxorubicin (SW620 Ad300 cells; verapamil […]): 8.8 fold |
